Data on three compounds can be found in patent US20050266105A1, “Compositions comprising natural agents for the treatment of HIV-associated opportunistic infections and complications and methods for preparing and using compositions comprising natural agents” (priority 2004, published 2005).

Usually IC50 stands for the midpoint of a concentration-inhibition curve. The MIC is the lowest concentration that inhibits growth of the organism.

One series has as its system CEM-SS cells. Nature of the series: Compound cytotoxicity (cell viability in the absence of virus, MTS). Conditions: read-out: TC50 (the source's name). It counts as cell-based. The protocol:
Similarly, compound cytotoxicity is measured as the % reduction in cell viability resulting from incubation of the compound with the cells (in the absence of virus). The greater the reduction in cell viability, the greater the cytotoxicity of the compound. […] Macroscopic observation of the cells in each well of the microtiter plate confirmed the cytotoxicity results obtained following staining of the cells with the MTS metabolic dye.

Another series relates to HIV-1RF. Kind of series: HIV-1 cytoprotection assay. The format is cell-based. The protocol: ICBG plant samples were tested using an HIV-1 cytoprotection assay. This assay is based on the premise that HIV-1RF is cytopathic and kills CEM-SS cells as it replicates in the culture. Compounds that inhibit HIV-1 replication are therefore able to reduce the amount of viral cytopathic effect that occurs in the culture. As a result, compound activity is measured by determining the amount of cell viability remaining in the cultures following the six day incubation period. The % reduction in viral cytopathic effect is a direct measure of compound activity. The greater the % reduction in viral cytopathic effect, the greater the antiviral activity of the compound. […] Macroscopic observation of the cells in each well of the microtiter plate confirmed the cytotoxicity results obtained following staining of the cells with the MTS metabolic dye.

The next series deals with MRSA. The following applies: cited from earlier work.

Converted amounts (≈) assume the structure as drawn. Where two headings read alike, the source gives them in different places.

As to `Cc1cn([C@H]2C[C@H](N=[N+]=[N-])[C@@H](CO)O2)c(=O)[nH]c1=O` [AZT], the CC50 in the series on CEM-SS cells was above 500 nM. Also, the “Antiviral activity (comments)” value with HIV-1RF (HIV-1RF in CEM-SS cells, at concentrations tested) is reported as “expected level of antiviral activity”. In the series with HIV-1RF (HIV-1RF in CEM-SS cells, six day incubation), this compound showed an IC50 below 2 nM. Further, the “AI (Antiviral Index)” value in the series on HIV-1RF (TC50 / IC50) is listed as above 320.

Take `CCn1cc(C(=O)O)c(=O)c2cc(F)c(N3CCNCC3)cc21` [Norfloxacin]: the MIC was 64 µg/mL (≈ 200 µM) with MRSA (MRSA strain 1199-B) and 8 µg/mL (≈ 25.1 µM) with MRSA (MRSA strain XU212).

For the compound `CC[C@H]1OC(=O)[C@H](C)[C@@H](O[C@H]2C[C@@](C)(OC)[C@@H](O)[C@H](C)O2)[C@H](C)[C@@H](O[C@@H]2O[C@H](C)C[C@H](N(C)C)[C@H]2O)[C@](C)(O)C[C@@H](C)C(=O)[C@H](C)[C@@H](O)[C@]1(C)O` [Erythromycin], the minimal inhibitory concentration (MIC) in the series with MRSA (MRSA strain 1199-B) is 2 µg/mL (≈ 2.73 µM); in the series with MRSA (MRSA strain XU212), 4096 µg/mL (≈ 5580 µM).
